From PubChem BioAssay AID179 (DTP/NCI, 2004)
Values joined by “and” are separate entries in the source; they are usually repeats but may differ in a detail not shown here. Identical values can stand only once. Active and inactive are the calls of the source.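 Rule for the calls: active = compounds giving half or more protection of infected cells from virus-caused growth loss, again on retest; inactive = the rest.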 Where a SMILES comes first, the peptide text is derived from it. [ ]: non-standard residue; d: D form. The star is where a group is joined. ξ: configuration not given here. X13 = COc1ccc(C(N*)c2ccc(OC)cc2)cc1; NMeF = CN[C@@H](Cc1ccccc1)C(=O)O; NMeD = CN[C@@H](CC(=O)O)C(=O)O; NMeV = CN[C@H](C(=O)O)C(C)C; ξNMeV = CNC(C(=O)O)C(C)C; Boc = CC(C)(C)OC(=O)*; ξNMeA = CNC(C)C(=O)O; ξV = CC(C)C(N)C(=O)O

Test system: CEM cells HIV-1 protection, formazan growth assay
Assay: NCI AIDS Antiviral Assay
Settings: for IC50: measured here: growth of uninfected CEM cells
Procedure, shortened: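 Protection of CEM cells against HIV-1 measured as cell growth via soluble formazan read-out, with five concentrations tested on both infected and uninfected cells; failure to protect may reflect toxicity.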

**Q.** For Cc1cccc(O)c(=O)c1, which outcome is on record?
**A.** inactive

**Q.** Which EC50 does the source give for COc1ccc(C2=C/C(=C3\C(=O)Oc4ccccc4C3=O)SS2)cc1 here?
**A.** > 200 µM

**Q.** And the IC50?
**A.** > 200 µM

**Q.** For CCSSc1ccccc1C(=O)NC(CC)CO (stereo unspecified), which EC50 is on record?
**A.** > 200 µM

**Q.** What about the IC50 of the same compound?
**A.** 5.01 µM

**Q.** How did the EC50 turn out when O=S1(=O)CC2C3CC(Oc4ccccc4)C(C3)C2C1 (stereo unspecified) was run?
**A.** > 107 µM

**Q.** What about the IC50 of the same compound?
**A.** > 107 µM

**Q.** CN(C)c1ccc(/C=C2\Cc3ccccc3C2=O)cc1 was tested. Which EC50 did it give?
**A.** > 14.5 µM

**Q.** What about the IC50 of the same compound?
**A.** > 14.5 µM

**Q.** COC(=O)[C@]1(C)C(OC)=CC(=O)C2C1[C@H]1CCC[C@@H]21 (stereo partly specified) was tested. Which outcome did it give?
**A.** inactive

**Q.** Which EC50 does the source give for COc1ccc(CN2COc3c(ccc4cccnc34)C2)cc1 here?
**A.** > 200 µM

**Q.** And the IC50?
**A.** 0.759 µM

**Q.** With COC(=O)C1C(=O)C(C(=O)OC)C2(C)C(C(=O)OC)C(=O)C(C(=O)OC)C12C (stereo unspecified) as the compound, how does the EC50 read?
**A.** > 89.1 µM

**Q.** And the IC50?
**A.** 81.3 µM

**Q.** For CCCCCCCCCCCCCCCCCCOC(COP(=O)(O)OCC1CCC(n2ccc(NC(=O)CCCCCCCCCCCCCCC)nc2=O)O1)COP(=O)(O)OCC1OC(n2cc(C)c(=O)[nH]c2=O)CC1N=[N+]=[N-] (stereo unspecified), which EC50 is on record?
**A.** 0.871 µM

**Q.** And the IC50?
**A.** 50.1 µM

**Q.** How did the outcome turn out when CC(C)NC(=O)OCc1nnn2c1C(OC(=O)NC(C)C)CC2 (stereo unspecified) was run?
**A.** inactive

**Q.** For Cc1cc2nc3c(=O)n(C)c(=O)nc-3n(-c3ccc(Cl)cc3)c2cc1C, which outcome is on record?
**A.** inactive

**Q.** Which results are given for COCP1(=S)OC(C)CCN1C(C)C (stereo unspecified)?
**A.** EC50: > 200 µM; IC50: 112 µM

**Q.** What does the source list for O=C([O][Bi]([c]1ccccc1)[c]1ccccc1)C(F)(F)F?
**A.** EC50: > 20 µM; IC50: 15.1 µM

**Q.** Cc1cc2c(=O)[nH]nc(N)c2c(N)n1 was tested. Which EC50 did it give?
**A.** > 200 µM

**Q.** And the IC50?
**A.** > 200 µM

**Q.** CCOc1ccccc1NC(=O)C(=O)C(C(=O)c1ccc2ccccc2c1)C1OC(=O)c2ccccc21 (stereo unspecified) was tested. Which EC50 did it give?
**A.** > 72.4 µM

**Q.** What about the IC50 of the same compound?
**A.** 31.6 µM

**Q.** How did the outcome turn out when CP1(=S)CCC2=C1c1ccc(O)cc1CC2 (stereo unspecified) was run?
**A.** inactive

**Q.** O=C(CC(c1ccccc1)C1C(=O)C12CCCC2)c1ccccc1 (stereo unspecified) was tested. Which EC50 did it give?
**A.** > 81.3 µM

**Q.** And the IC50?
**A.** > 81.3 µM

**Q.** For COC1(CC[C@@H](C)COC2OC(CO)C(O)C(O)C2O)O[C@H]2C[C@H]3[C@@H]4CC=C5C[C@@H](OC6OC(CO)C(O)C(OC7OC(CO)C(O)C(O)C7O)C6OC6OC(C)C(O)C(O)C6O)CC[C@]5(C)[C@H]4CC[C@]3(C)[C@H]2[C@@H]1C (stereo partly specified), which EC50 is on record?
**A.** > 200 µM

**Q.** What about the IC50 of the same compound?
**A.** 3.31 µM

**Q.** What does the source list for CCOC(=O)C[P+](c1ccc(OC)cc1)(c1ccc(OC)cc1)c1ccc(OC)cc1?
**A.** EC50: > 200 µM; IC50: 33.1 µM

**Q.** Which EC50 does the source give for CCC[CH2][Sn]([CH2]CCC)([O]C(=O)c1cccc(F)c1F)[O][Sn]([CH2]CCC)([CH2]CCC)[O]C(=O)c1cccc(F)c1F here?
**A.** > 6.61 µM

**Q.** And the IC50?
**A.** 4.79 µM

**Q.** For COc1ccc(C(NC(=O)C[C@@H](C(=O)N(C)C(C)C(=O)O)N(C)C(=O)[C@@H]2CCCN2C(=O)[C@H](C(C)C)N(C)C(=O)C(C(C)C)N(C)C(=O)[C@H](Cc2ccccc2)N(C)C(=O)C(NC(=O)OC(C)(C)C)C(C)C)c2ccc(OC)cc2)cc1 (stereo partly specified) (Boc-[ξV][NMeF][ξNMeV][NMeV]P[NMeD](X13)[ξNMeA]-OH), which EC50 is on record?
**A.** > 158 µM

**Q.** What about the IC50 of the same compound?
**A.** 23.4 µM

**Q.** For Clc1cccc(-c2nnc(-c3nn(-c4ccccc4)c4nc5ccccc5nc34)o2)c1, which EC50 is on record?
**A.** > 4.68 µM

**Q.** And the IC50?
**A.** > 4.68 µM

**Q.** For CC1(C)C(=O)C(C)(C)C(=O)C(C)(C)C1=O, which outcome is on record?
**A.** inactive

**Q.** For CC(CNCCCNCCNCCCNCO)[N+](=O)[O-] (stereo unspecified), which outcome is on record?
**A.** inactive

**Q.** Which EC50 does the source give for Cc1cnc(C)c(-c2cc3ccccc3[nH]2)n1 here?
**A.** > 32.4 µM

**Q.** And the IC50?
**A.** > 32.4 µM

**Q.** For N#C/C(=C\c1cc(O)c(O)c(Br)c1)C(=O)NCCCNC(=O)/C(C#N)=C/c1cc(O)c(O)c(Br)c1, which EC50 is on record?
**A.** > 200 µM

**Q.** What about the IC50 of the same compound?
**A.** 112 µM

**Q.** Which EC50 does the source give for CCN(CC)CCCN1CC(=O)N2CCCCN2C(=O)C1 here?
**A.** > 200 µM

**Q.** What about the IC50 of the same compound?
**A.** > 200 µM

**Q.** C[N+](C)=c1nc(N2CCOCC2)ss1 was tested. Which outcome did it give?
**A.** inactive

**Q.** How did the EC50 turn out when CCCCCCCCCCCCCC/C(=C/OCC[N+](C)(C)C)OC(C)=O (tested in a mixture with another compound) was run?
**A.** > 200 µM

**Q.** What about the IC50 of the same compound?
**A.** 0.355 µM

**Q.** What does the source list for CN(C)CC(CN(C)C)c1cccc(C(CN(C)C)CN(C)C)n1?
**A.** EC50: > 741 µM; IC50: > 741 µM

**Q.** For O=C(O)/C=C\C(=O)Nc1ccccc1O, which EC50 is on record?
**A.** > 200 µM

**Q.** What about the IC50 of the same compound?
**A.** > 200 µM

**Q.** With CCOC(OCC)/C(C)=N/[N+](C)(C)C as the compound, how does the EC50 read?
**A.** > 200 µM

**Q.** What about the IC50 of the same compound?
**A.** > 200 µM

**Q.** What does the source list for CCOC(=O)c1ccc(N/N=[N+](/[O-])CC2OC(n3ccc(=O)[nH]c3=O)C(O[Si](C)(C)C(C)(C)C)C2O[Si](C)(C)C(C)(C)C)cc1 (stereo unspecified)?
**A.** EC50: > 200 µM; IC50: 21.4 µM

**Q.** For COc1ccc2[nH]c3c(c2c1)[C@H]1CCC(C(C)(C)C)C[C@H]1[C@H]1C(=O)N(c2ccccc2)C(=O)[C@@H]31 (stereo partly specified), which EC50 is on record?
**A.** > 7.94 µM

**Q.** And the IC50?
**A.** > 7.94 µM

**Q.** Which results are given for CC1(C)C2CCC3CC(CCC#N)CCC3C21C#N (stereo unspecified)?
**A.** EC50: > 200 µM; IC50: 95.5 µM

**Q.** What does the source list for Cc1c(C(=O)NNc2ccccc2)n2c(=S)[nH]nc2c2ccccc12?
**A.** EC50: > 200 µM; IC50: 93.3 µM

**Q.** How did the outcome turn out when COC1CC(Br)(C#N)C1 (stereo unspecified) was run?
**A.** inactive

**Q.** Which outcome does the source give for O=C(CSSCC(=O)OCCS(=O)(=O)Nc1ccc(Br)cc1)OCCS(=O)(=O)Nc1ccc(Br)cc1 here?
**A.** inactive

**Q.** With C[C@]12CC[C@H](O)CC1=CC[C@@H]1[C@@H]2CC[C@]2(C)/C(=N/OCCN3CCCC3)CC[C@@H]12 as the compound, how does the EC50 read?
**A.** > 200 µM

**Q.** What about the IC50 of the same compound?
**A.** 9.33 µM

**Q.** For COc1ccc(CC(NC(=O)NSc2ccccc2)C(=O)NC2C(CO)OC(n3cnc4c(N(C)C)ncnc43)C2O)cc1 (stereo unspecified), which EC50 is on record?
**A.** > 200 µM

**Q.** What about the IC50 of the same compound?
**A.** 87.1 µM

**Q.** COc1c(O)cc2oc3cc(O)c(CC=C(C)C)c(O)c3c(=O)c2c1CC=C(C)C was tested. Which EC50 did it give?
**A.** > 229 µM

**Q.** What about the IC50 of the same compound?
**A.** 16.6 µM and 10.7 µM

**Q.** What does the source list for COc1ccc2c(c1)C1c3ccccc3CCN1CCC2 (stereo unspecified)?
**A.** EC50: > 200 µM; IC50: 79.4 µM

**Q.** What does the source list for Cc1ccc(SCC(CF)OCn2cnc3c(=O)[nH]c(N)nc32)cc1 (stereo unspecified)?
**A.** EC50: > 20 µM; IC50: > 20 µM
